Test system: T47D (PIK3CA H1047R) cells
Test: pS473 AKT assay with 2.5% FBS, T47D cells
Type: cell-based
Conditions: Homo sapiens, pSer473 AKT, DMEM with 2.5% FBS, 2 h treatment, read-out: T47D_IC50
How it was run: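 In-cell chemiluminescent ELISA of AKT Ser473 phosphorylation, using anti-pSer473 primary and HRP secondary antibodies on fixed cells. T47D (PIK3CA H1047R) cells had 2 h of compound treatment in DMEM containing 2.5% FBS; IC50 derived from dose-response.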

IC50 | Compound
< 1000 nM | Cc1cc(C(C)Nc2ccc(C)nc2-c2cnn(C3CC3)c2)c2c(c1)c(=O)n1c3c2cnn3CCC1 (stereo not shown) [Compound 321, 10-(1-((2-(1-cyclopropyl-1H-pyrazol-4-yl)-6-methylpyridin-3-yl)amino)ethyl)-8-methyl-4,5-dihydro-3H,6H-2,2a,5a-triazaaceanthrylen-6-one]
< 1000 nM | Cc1cc(C(C)Nc2ccc(Cl)nc2N2CCN3C(=O)OCC3C2)c2c(c1)c(=O)n1c3c2cnn3CCC1 (stereo not shown) [Compound 322, 7-(6-chloro-3-((1-(8-methyl-6-oxo-4,5-dihydro-3H,6H-2,2a,5a-triazaaceanthrylen-10-yl)ethyl)amino)pyridin-2-yl)hexahydro-3H-oxazolo[3,4-a]pyrazin-3-one]
< 1000 nM | Cc1cc(C(C)Nc2ccc(Cl)nc2-c2cnn3c2CN(C)CC3)c2c(c1)c(=O)n1c3c2cnn3CCC1 (stereo not shown) [Compound 323, 10-(1-((6-Chloro-2-(5-methyl-4,5,6,7-tetrahydropyrazolo[1,5-a]pyrazin-3-yl)pyridin-3-yl)amino)ethyl)-8-methyl-4,5-dihydro-3H,6H-2,2a,5a-triazaaceanthrylen-6-one]
< 1000 nM | Cc1cc(C(C)Nc2ccc(Cl)nc2-c2ccc(CN(C)C)nc2)c2c(c1)c(=O)n1c3c2cnn3CCC1 (stereo not shown) [Compound 324, 10-(1-((6-Chloro-6′-((dimethylamino)methyl)-[2,3′-bipyridin]-3-yl)amino)ethyl)-8-methyl-4,5-dihydro-3H,6H-2,2a,5a-triazaaceanthrylen-6-one]
< 1000 nM | Cc1cc(C(C)Nc2ccc(C)nc2-c2noc(=O)[nH]2)c2c(c1)c(=O)n1c3c2cnn3C(C)CC1 (stereo not shown) [Compound 325, 3-(3-((1-(3,8-Dimethyl-6-oxo-4,5-dihydro-3H,6H-2,2a,5a-triazaaceanthrylen-10-yl)ethyl)amino)-6-methylpyridin-2-yl)-1,2,4-oxadiazol-5(4H)-one]
< 1000 nM | Cc1cc(C(C)Nc2ccc(C)nc2-c2nnn(C)n2)c2c(c1)c(=O)n1c3c2cnn3CCC1 (stereo not shown) [Compound 326, 8-Methyl-10-(1-((6-methyl-2-(2-methyl-2H-tetrazol-5-yl)pyridin-3-yl)amino)ethyl)-4,5-dihydro-3H,6H-2,2a,5a-triazaaceanthrylen-6-one]
< 1000 nM | CCn1ncc2c3c(C(C)Nc4ccc(C)nc4-c4noc(=O)[nH]4)cc(C)cc3c(=O)n(C)c21 (stereo not shown) [Compound 327, 3-(3-((1-(3-Ethyl-4,7-dimethyl-5-oxo-4,5-dihydro-3H-pyrazolo[3,4-c]isoquinolin-9-yl)ethyl)amino)-6-methylpyridin-2-yl)-1,2,4-oxadiazol-5(4H)-one]
< 1000 nM | Cc1cc(C(CO)Nc2ccc(Cl)nc2-c2ncn(C)n2)c2c(c1)c(=O)n1c3c2cnn3CCC1 (stereo not shown) [Compound 328, 10-(1-((6-Chloro-2-(1-methyl-1H-1,2,4-triazol-3-yl)pyridin-3-yl)amino)-2-hydroxyethyl)-8-methyl-4,5-dihydro-3H,6H-2,2a,5a-triazaaceanthrylen-6-one]
< 1000 nM | Cc1cc(C(CO)Nc2ccc(Cl)nc2-c2cnn(C)c2)c2c(c1)c(=O)n1c3c2cnn3CCC1 (stereo not shown) [Compound 329, 10-(1-((6-chloro-2-(1-methyl-1H-pyrazol-4-yl)pyridin-3-yl)amino)-2-hydroxyethyl)-8-methyl-4,5-dihydro-3H,6H-2,2a,5a-triazaaceanthrylen-6-one]
< 1000 nM | Cc1cc(C(CO)Nc2ccc(Cl)nc2-c2cnn(C)c2C)c2c(c1)c(=O)n1c3c2cnn3CCC1 (stereo not shown) [Compound 330, 10-(1-((6-chloro-2-(1,5-dimethyl-1H-pyrazol-4-yl)pyridin-3-yl)amino)-2-hydroxyethyl)-8-methyl-4,5-dihydro-3H,6H-2,2a,5a-triazaaceanthrylen-6-one]
< 1000 nM | Cc1cc(C(CO)Nc2ccc(Cl)nc2-c2nnco2)c2c(c1)c(=O)n1c3c2cnn3CCC1 (stereo not shown) [Compound 331, 10-(1-((6-chloro-2-(1,3,4-oxadiazol-2-yl)pyridin-3-yl)amino)-2-hydroxyethyl)-8-methyl-4,5-dihydro-3H,6H-2,2a,5a-triazaaceanthrylen-6-one]
< 1000 nM | Cc1cc(C(CO)Nc2ccc(Cl)nc2-c2nnn(C)n2)c2c(c1)c(=O)n1c3c2cnn3CCC1 (stereo not shown) [Compound 332, 10-(1-((6-chloro-2-(2-methyl-2H-tetrazol-5-yl)pyridin-3-yl)amino)-2-hydroxyethyl)-8-methyl-4,5-dihydro-3H,6H-2,2a5a-triazaaceanthrylen-6-one]
< 1000 nM | Cc1cc(C(CO)Nc2ccc(Cl)nc2-c2ccc3c(c2)CN(C)C3=O)c2c(c1)c(=O)n1c3c2cnn3CCC1 (stereo not shown) [Compound 333, 10-(1-((6-chloro-2-(2-methyl-1-oxoisoindolin-5-yl)pyridin-3-yl)amino)-2-hydroxyethyl)-8-methyl-4,5-dihydro-3H,6H-2,2a,5a-triazaaceanthrylen-6-one]
< 1000 nM | CCn1ncc2c3c(C(CN4CCN(C)CC4)Nc4ccc(Cl)nc4-c4cnn(C)c4)cc(C)cc3c(=O)n(C)c21 (stereo not shown) [Compound 334, 9-(1-((6-Chloro-2-(1-methyl-1H-pyrazol-4-yl)pyridin-3-yl)amino)-2-(4-methylpiperazin-1-yl)ethyl)-3-ethyl-4,7-dimethyl-3,4-dihydro-5H-pyrazolo[3,4-c]isoquinolin-5-one]
< 1000 nM | Cc1cc(C(C)Nc2ccccc2C(=O)O)c2c(c1)c(=O)n(C)c1cncn21 (stereo not shown) [Compound I-4, 2-((1-(4,7-Dimethyl-5-oxo-4,5-dihydroimidazo[1,5-a]quinazolin-9-yl)ethyl)amino)benzoic acid]
< 1000 nM | CCc1ncn2c3c(C(C)Nc4ccccc4C(=O)O)cc(C)cc3c(=O)n(C)c12 (stereo not shown) [Compound I-5, 2-((1-(3-Ethyl-4,7-dimethyl-5-oxo-4,5-dihydroimidazo[1,5-a]quinazolin-9-yl)ethyl)amino)benzoic acid]
< 1000 nM | Cc1cc(C(C)Nc2ccccc2C(=O)O)c2c(c1)c(=O)n(C)c1c(-c3ccccn3)ncn21 (stereo not shown) [Compound I-6, 2-((1-(4,7-Dimethyl-5-oxo-3-(pyridin-2-yl)-4,5-dihydroimidazo[1,5-a]quinazolin-9-yl)ethyl)amino)benzoic acid]
< 1000 nM | Cc1cc(C(C)Nc2ccccc2C(=O)O)c2c(c1)c(=O)n(C)c1c(C)ncn21 (stereo not shown) [Compound I-7, 2-((1-(3,4,7-Trimethyl-5-oxo-4,5-dihydroimidazo[1,5-a]quinazolin-9-yl)ethyl)amino)benzoic acid]
< 1000 nM | Cc1cc(C(C)Nc2ccc(C)nc2C(=O)O)c2c(c1)c(=O)n(C)c1c(C)ncn21 (stereo not shown) [Compound I-8, 6-Methyl-3-((1-(3,4,7-trimethyl-5-oxo-4,5-dihydroimidazo[1,5-a]quinazolin-9-yl)ethyl)amino)picolinic acid]
< 1000 nM | CCc1ncn2c3c(C(C)Nc4ccccc4C(=O)O)cc(Cl)cc3c(=O)n(C)c12 (stereo not shown) [Compound I-9, 2-((1-(7-Chloro-3-ethyl-4-methyl-5-oxo-4,5-dihydroimidazo[1,5-a]quinazolin-9-yl)ethyl)amino)benzoic acid]
< 1000 nM | CC(Nc1ccccc1C(=O)O)c1cc(Cl)cc2c(=O)n(C)c3cncn3c12 (stereo not shown) [Compound I-10, 2-((1-(7-Chloro-4-methyl-5-oxo-4,5-dihydroimidazo[1,5-a]quinazolin-9-yl)ethyl)amino)benzoic acid]
< 1000 nM | Cc1ncn2c3c(C(C)Nc4ccccc4C(=O)O)cc(Cl)cc3c(=O)n(C)c12 (stereo not shown) [Compound I-11, 2-((1-(7-Chloro-3,4-dimethyl-5-oxo-4,5-dihydroimidazo[1,5-a]quinazolin-9-yl)ethyl)amino)benzoic acid]

— US20250270213A1, “PI3Ka INHIBITORS” (Synnovation Therapeutics, Inc., priority 2022, published 2025)
